In patent publication US20180117176A1, “POROUS SILICON MICROPARTICLE-BASED CANCER VACCINES AND METHODS FOR POTENTIATING ANTI-TUMOR IMMUNITY” (The Methodist Hospital, priority 2015, published 2018):
Where a SMILES comes first, the peptide text is derived from it. The star is where a group is joined. Cbz = O=C(OCc1ccccc1)*

Key:
Assay type in all cases: cell-based, mouse
[1] = system: Ifn-α4 and Ifn-β genes; assay: QPCR analysis of Ifn-α4 and Ifn-β gene expression in BMDCs; conditions: BMDCs pre-treated with chemical inhibitor
Method: FIG. 3A, FIG. 3B, FIG. 3C, and FIG. 3D show PSM-induced IFN-I signaling in DCs. […] Cell culture medium served as the negative control. […] FIG. 3C is a QPCR analysis of mRNA levels of the Ifn-α4 and Ifn-β genes in BMDCs 5 hrs after co-incubation with PSM, free antigen, or PSM/OVA antigen. […] Data are presented as mean±S.D.; *, P <0.05, **, P <0.01 (see also FIG. 9A and FIG. 9B);
FIG. 4A, FIG. 4B, FIG. 4C, FIG. 4D, FIG. 4E, FIG. 4F, FIG. 4G, FIG. 4H, FIG. 4I, and FIG. 4J show TRIF and MAVS mediated PSM induced interferon type I (IFN-I) activation. FIG. 4A, FIG. 4B, FIG. 4C, and FIG. 4D illustrate PSM-induced changes of Ifn-α4 and Ifn-β gene expression in BMDCs infected with lentiviruses carrying shRNAs targeting the indicated genes. FIG. 4E, FIG. 4F, FIG. 4G, and FIG. 4H illustrate PSM-induced changes of Ifn-α4 and Ifn-β gene expression in BMDCs isolated from wild-type or gene knockout mice. […] FIG. 4J is a schematic view of PSM-induced signaling pathway that mediates IFN-I activation. Data are presented as mean±S.D.; *, P <0.05, **, P <0.01; (see also FIG. 10A, FIG. 10B, FIG. 10C, FIG. 10D, FIG. 10E, and FIG. 10F);
FIG. 10A, FIG. 10B, FIG. 10C, FIG. 10D, FIG. 10E, and FIG. 10F show PSM induced activation of IFN-I signaling in DCs. […]
Real-Time PCR. […] The expression of individual genes was calculated by a ΔΔCT method, and normalized to the expression of β-actin. […]

[2] = system: OVA-specific B3Z CD8 T cells; assay: In vitro antigen presentation assay, IL-2 production by B3Z cells; conditions: DCs treated with inhibitor before co-incubation with soluble OVA
Method: In Vitro Antigen Presentation Assay. The in vitro antigen presentation assay was performed as previously described (Mukai et al., 2011). Briefly, DC2.4 cells or BMDCs isolated from C57BL/6 mice or TAP^−/− mice were seeded in a 96-well flat-bottom culture plates at a density of 2×10^5 cells/well, and cultured for 12 hrs at 37° C. Each well was washed once with PBS, and then the cells were pulsed with soluble OVA, PSM/OVA, OVA-derived MHC class I epitope peptide [OVA257-264; SIINFEKL (SEQ ID NO:1)], or MHC class II epitope peptide [OVA323-339; ISQAVHAAHAEINEAGR (SEQ ID NO:2); Peptide 2.0] for indicated time points, and immediately fixed with 1% paraformaldehyde. The cells were then co-cultured with 2×10^5 B3Z cells or 2×10^5 DOBW cells for 18 hrs at 37° C. The response of stimulated B3Z or DOBW cells was assessed by determining the amount of IL-2 released into the culture medium using a murine IL-2 ELISA KIT (Ebioscience, San Diego, Calif., USA). […]
T-cell response to antigen cross-presentation of PSM-loaded OVA (PSM/OVA) was next assessed in DCs using an in vitro antigen presentation assay. […] It was subsequently determined whether PSM packaging could induce sustained antigen presentation. […]

[3] = system: DCs (DC2.4 cells, BMDCs); assay: DC uptake of PSM/FITC-OVA in cell culture
Source text: FIG. 1A, FIG. 1B, FIG. 1C, FIG. 1D, FIG. 1E, FIG. 1F, and FIG. 1G show PSM-loaded antigen was efficiently internalized by dendritic cells (DCs) through phagocytosis and macropinocytosis. […] Upper panel, DC2.4 cells; lower panel, bone-marrow-derived dendritic cells (BMDCs). Scale bar, 25 μm. FIG. 1B is a representative transmission electron microscopy (TEM) image showing the vesicular structure around a PSM/OVA particle inside a DC. Upper panel magnification=5,000×; lower panel magnification=50,000×. Upper panel scale bar=4 μm; lower panel bar=0.5 μm. […] The DCs were extensively washed after priming with 5 μg/mL soluble peptide or PSM/peptides, and either immediately co-incubated with B3Z cells (0 hrs), or cultured for 18 to 30 hrs before T-cell co-incubation; Data are presented as mean±S.D.; *, P <0.05, **, P <0.01; (See also FIG. 7A-FIG. 7E);
Confocal Laser Scanning Microscopy. DC2.4 cells or BMDCs were seeded on eight-well chamber slides at a density of 1×10^5 cells/well and cultured for 24 hrs at 37° C. Each well was washed twice with PBS, and the cells were pulsed with FITC-OVA or PSM/FITC-OVA for 20 min. Cells were washed twice with PBS and incubated for an additional 30 min, 1, 3, or 6 hours in culture medium at 37° C. […] The samples were embedded with Prolong® Gold anti-fade reagent with DAPI (Invitrogen) and analyzed by confocal laser scanning microscopy (Olympus IX81). […]

[4] = system: DCs; assay: Intracellular antigen trafficking by confocal microscopy
Method: FIG. 2A, FIG. 2B, and FIG. 2C show antigen presentation of PSM-loaded OVA. FIG. 2A illustrates subcellular transport of antigens. DCs were incubated with PSM/FITC-OVA for 0.5 hrs, and then washed extensively to remove unbound particles. The cells were cultured for an additional 0.5 hr, 1 hr, 3 hrs, or 6 hrs before fixation, followed by immunostaining with antibodies recognizing specific organelles (EEA1 for early endosome; Rab7 for late endosome; TR for recycling endosome; and KDEL for the ER). Scale bar=25 μm. […] Peptide I (100 ng/mL) served as the positive control. […] BMDCs were incubated with OVA or PSM/OVA for 16 hrs, followed by harvest and labeling with the anti-CD11c antibody identifying DCs and the 25D1.16 antibody recognizing OVA257-264/H-2K^b complex on DC surface. Percentages of 25D1.16-staining positive populations in DCs are shown in red numbers. Data are presented as mean±S.D; *, P <0.05, **, P <0.01 (see also FIG. 8A, FIG. 8B and FIG. 8C);
Confocal Laser Scanning Microscopy. DC2.4 cells or BMDCs were seeded on eight-well chamber slides at a density of 1×10^5 cells/well and cultured for 24 hrs at 37° C. Each well was washed twice with PBS, and the cells were pulsed with FITC-OVA or PSM/FITC-OVA for 20 min. […] The samples were embedded with Prolong® Gold anti-fade reagent with DAPI (Invitrogen) and analyzed by confocal laser scanning microscopy (Olympus IX81).

Row | Molecule | Effect of inhibitor on IFN-I induction by PSM [1] | Effect of inhibitor pre-treatment on particle internalization [3] | further results
1 | O=C(NCCCNc1nc(Nc2cccc(NC(=O)N3CCCC3)c2)ncc1I)c1cccs1 [BX795] | markedly inhibited IFN-I induction |  | 
2 | CC(C)C[C@@H](C=O)NC(=O)[C@H](CC(C)C)NC(=O)[C@H](CC(C)C)NC(=O)OCc1ccccc1 [MG-132] (Cbz-Leu-Leu-Leu-aldehyde) |  |  | Effect on class I antigen presentation of soluble OVA [2]: completely blocked
3 | N=C(N)NC(=O)c1nc(Cl)c(N)nc1N [amiloride] |  | significantly decreased particle internalization | 
4 | C=C1[C@@H](C)[C@H]2[C@H](Cc3ccccc3)NC(=O)[C@]23[C@H](OC(C)=O)/C=C/[C@@](C)(O)C(=O)[C@@H](C)C/C=C/[C@H]3[C@@H]1O [cytochalasin D] | suppressed IFN-I induction by PSM | significantly decreased particle internalization | 
5 | free FITC-OVA: free FITC-conjugated ovalbumin |  |  | Signal inside DCs at 6 hrs [4]: very weak signal by 6 hour
